Measured values reported in ChEMBL document CHEMBL1201862, “PubChem BioAssay data set” (2004).
Calls of active or inactive are those of the source.

How the values were obtained:
[1] = target: T1, Polyadenylate-binding protein 1 (Homo sapiens, UniProt P11940); assay: MLLE binding blockers, Cy5 peptide tracer – biochemical, fluorescence polarization, Cy5-PAM2 peptide, secondary, miRNA deadenylation inhibitor project, dose response (AID 602260); type: functional; conditions: read-out: IC50_Mean
[2] = target: T1, Polyadenylate-binding protein 1; assay: MLLE domain peptide-binding blockers, IC50 – biochemical, fluorescence polarization, FITC-PAM2 peptide, dose response (AID 602259); type: functional; conditions: read-out: IC50_Mean
[3] = target: T2, Corticotropin-releasing factor receptor 2/Corticotropin-releasing factor-binding protein (Homo sapiens, UniProt P24387+Q13324); assay: activators of CRF receptor 2 with binding protein – uHTS hits, confirmation (AID 602473); type: functional; conditions: read-out: EC50_Mean
T2 sequence (Q13324 whole entry): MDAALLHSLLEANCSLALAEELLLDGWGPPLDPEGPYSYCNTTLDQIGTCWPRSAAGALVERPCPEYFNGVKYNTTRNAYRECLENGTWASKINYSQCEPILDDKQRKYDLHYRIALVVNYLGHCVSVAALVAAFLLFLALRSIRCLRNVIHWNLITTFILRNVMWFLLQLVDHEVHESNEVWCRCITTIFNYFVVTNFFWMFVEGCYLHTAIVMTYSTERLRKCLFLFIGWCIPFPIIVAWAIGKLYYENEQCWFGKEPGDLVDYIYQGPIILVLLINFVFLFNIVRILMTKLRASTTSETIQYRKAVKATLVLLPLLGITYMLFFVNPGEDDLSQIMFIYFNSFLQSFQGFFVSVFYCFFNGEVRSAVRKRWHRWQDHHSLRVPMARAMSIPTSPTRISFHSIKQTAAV
T2 sequence (P24387 whole entry): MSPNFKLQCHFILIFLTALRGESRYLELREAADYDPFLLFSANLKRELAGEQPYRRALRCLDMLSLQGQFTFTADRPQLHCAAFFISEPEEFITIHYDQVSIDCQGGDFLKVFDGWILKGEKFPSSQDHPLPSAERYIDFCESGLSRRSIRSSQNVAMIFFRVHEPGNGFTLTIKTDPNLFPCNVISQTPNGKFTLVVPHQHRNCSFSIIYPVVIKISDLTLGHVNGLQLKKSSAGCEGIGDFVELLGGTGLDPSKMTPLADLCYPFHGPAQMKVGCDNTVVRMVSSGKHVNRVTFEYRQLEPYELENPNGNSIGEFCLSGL

[4] = target: T2, Corticotropin-releasing factor receptor 2/Corticotropin-releasing factor-binding protein; assay: Dose Response confirmation of uHTS hits for small molecule antagonists of the CRF-binding protein and CRF-R2 receptor complex.; type: functional; conditions: read-out: IC50_Mean
[5] = target: T3, Heat shock factor protein 1 (Mus musculus, UniProt P38532); assay: enhancement of HSF1-driven luciferase signal – cell-based, NIH3T3, luminescence, dose retest, confirmation (AID 435004); type: functional;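 note: stress induced by proteasome inhibitor MG132 added 30 min after compound; luciferase reporter driven by HSF1 response element in NIH3T3 cells; actives raise luminescence as potentiators of the MG132 stress response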
T3 sequence (P38532 whole entry): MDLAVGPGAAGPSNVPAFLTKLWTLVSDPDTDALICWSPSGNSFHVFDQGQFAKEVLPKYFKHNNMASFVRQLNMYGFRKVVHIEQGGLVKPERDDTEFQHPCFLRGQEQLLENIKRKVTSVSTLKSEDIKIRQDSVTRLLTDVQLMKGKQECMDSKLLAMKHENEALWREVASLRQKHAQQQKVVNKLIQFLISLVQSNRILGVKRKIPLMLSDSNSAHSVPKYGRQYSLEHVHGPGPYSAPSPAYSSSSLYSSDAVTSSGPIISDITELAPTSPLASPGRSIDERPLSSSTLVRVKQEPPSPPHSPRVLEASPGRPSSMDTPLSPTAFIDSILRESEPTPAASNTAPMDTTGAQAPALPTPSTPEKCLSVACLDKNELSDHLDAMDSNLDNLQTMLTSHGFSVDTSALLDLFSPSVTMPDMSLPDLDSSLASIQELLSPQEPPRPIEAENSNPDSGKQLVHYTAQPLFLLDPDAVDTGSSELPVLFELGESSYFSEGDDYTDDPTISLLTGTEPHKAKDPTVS

[6] = NIH-3T3 fibroblast cytotoxicity, dose response, cytotoxicity control, cell-based, fluorescence, Alamar Blue, secondary assay (AID 2327); type: functional;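 note: NIH-3T3 mouse fibroblasts cultured with fluconazole at 8 µg/mL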
[7] = fluconazole-exposed Candida albicans growth modulators – fluorescence, retest, confirmation (AID 2467); type: functional, cell-based
Cytochrome P450 2C19 = Cytochrome P450 2C19 (Homo sapiens, UniProt P33261); assay: Cytochrome panel assay with activity outcomes. Panel member name: p450-cyp2c19 Compounds with AC50 equal or less than 10 uM are considered active; type: functional
Cytochrome P450 2C9 = Cytochrome P450 2C9 (Homo sapiens, UniProt P11712)
[8] = target: T3, Heat shock factor protein 1; assay: decrease of HSF1-responsive luciferase luminescence – cell-based, NIH3T3, dose retest, confirmation (AID 2382); type: functional;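 note: NIH3T3 fibroblasts with HSF1-driven luciferase reporter stressed by proteasome inhibitor MG132; luminescence from HSF1-driven luciferase expression after 8 hours of MG132 stress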
INS1 = assay: INS-1E survival protection against cytokine death – cell-based, luminescence, retest, dose response (AID 449756); type: functional; conditions: Rattus norvegicus;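 note: cell death triggered by IL-1 beta plus TNF-alpha plus IFN-gamma mixture; protective hits raise ATP signal compared with cytokine alone wells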
[9] = reduction of Shn3 3'UTR-driven luciferase in osteoblasts – cell-based, Clone20 osteoblasts, firefly luciferase, cherry-picked, dose response (AID 624132); type: functional;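 note: firefly luciferase luminescence from reporter carrying the Shn3 3'UTR in osteoblasts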
[10] = loss of viability in HepG2 cells – cell-based, CellTiter-Glo, cherry-picked, cytotoxicity control for Shn3 inhibitor project, dose response (AID 624134); type: functional
[11] = non-specific 3'UTR reporter inhibition in Clone20-Shn3RL – cell-based, Renilla luciferase, cherry-picked, counter-screen for Shn3 inhibitor project, dose response (AID 624133); type: functional
[12] = luciferase reporter signal suppression in cells – H4 neuroglioma cells, luminescence, dose response (AID 1990); type: functional, cell-based
[13] = Luminescence Cell-Based Dose Response HTS to Identify Inhibitors of 5'UTR Stem-Loop Driven Prion Protein mRNA Translation in H4 Neuroglioblastoma Cells. [Related pubchem assays: 1827 (Project Summary), 1813 (Primary HTS)]; type: functional
[14] = alpha-synuclein stem-loop luciferase translation blockers – H4 neuroglioma cells, luminescence, confirmation (AID 1988); type: functional, cell-based
[15] = Luminescence Cell-Based Dose Retest to Confirm Inhibitors of Cancer Stem Cells. [Related pubchem assays (depositor defined):AID2717, AID2721]; type: functional; conditions: Homo sapiens
Cytochrome P450 2D6 = Cytochrome P450 2D6 (Homo sapiens, UniProt P10635);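 note: CYP2D6 member of a cytochrome P450 panel assay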
Sequence of Cytochrome P450 2D6 (P10635 whole entry): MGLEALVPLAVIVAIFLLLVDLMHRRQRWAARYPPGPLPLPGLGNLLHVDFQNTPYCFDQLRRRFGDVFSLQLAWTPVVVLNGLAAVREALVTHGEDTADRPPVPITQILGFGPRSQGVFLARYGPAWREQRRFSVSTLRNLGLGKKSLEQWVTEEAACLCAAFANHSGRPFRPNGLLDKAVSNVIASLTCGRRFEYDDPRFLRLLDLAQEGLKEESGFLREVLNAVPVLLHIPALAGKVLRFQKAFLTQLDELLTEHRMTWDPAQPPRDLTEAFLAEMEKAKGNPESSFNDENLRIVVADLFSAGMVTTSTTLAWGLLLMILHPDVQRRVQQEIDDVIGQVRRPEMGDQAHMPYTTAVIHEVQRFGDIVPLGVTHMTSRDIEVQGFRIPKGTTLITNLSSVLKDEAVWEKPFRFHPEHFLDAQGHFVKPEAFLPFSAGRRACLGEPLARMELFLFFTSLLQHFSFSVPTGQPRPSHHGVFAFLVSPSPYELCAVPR

T1 sequence (P11940 whole entry, the tested form may be a part): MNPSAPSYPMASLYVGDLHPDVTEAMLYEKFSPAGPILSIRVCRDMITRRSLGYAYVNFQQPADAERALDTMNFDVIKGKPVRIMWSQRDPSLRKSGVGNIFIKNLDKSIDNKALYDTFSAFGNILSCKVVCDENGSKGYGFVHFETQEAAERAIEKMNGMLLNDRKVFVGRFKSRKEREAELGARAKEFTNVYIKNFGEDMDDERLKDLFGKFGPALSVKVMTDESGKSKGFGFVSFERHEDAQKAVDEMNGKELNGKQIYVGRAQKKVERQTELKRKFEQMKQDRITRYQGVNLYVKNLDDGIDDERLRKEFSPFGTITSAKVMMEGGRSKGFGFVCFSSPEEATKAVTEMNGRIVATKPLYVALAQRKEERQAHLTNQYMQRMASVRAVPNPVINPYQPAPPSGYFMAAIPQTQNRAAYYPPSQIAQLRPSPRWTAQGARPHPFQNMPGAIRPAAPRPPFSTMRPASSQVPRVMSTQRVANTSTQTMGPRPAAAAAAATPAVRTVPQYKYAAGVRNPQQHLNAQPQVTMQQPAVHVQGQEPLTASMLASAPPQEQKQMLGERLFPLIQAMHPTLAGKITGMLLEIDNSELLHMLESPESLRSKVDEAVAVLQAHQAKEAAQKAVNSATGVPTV
Sequence of Cytochrome P450 2C9 (P11712 whole entry): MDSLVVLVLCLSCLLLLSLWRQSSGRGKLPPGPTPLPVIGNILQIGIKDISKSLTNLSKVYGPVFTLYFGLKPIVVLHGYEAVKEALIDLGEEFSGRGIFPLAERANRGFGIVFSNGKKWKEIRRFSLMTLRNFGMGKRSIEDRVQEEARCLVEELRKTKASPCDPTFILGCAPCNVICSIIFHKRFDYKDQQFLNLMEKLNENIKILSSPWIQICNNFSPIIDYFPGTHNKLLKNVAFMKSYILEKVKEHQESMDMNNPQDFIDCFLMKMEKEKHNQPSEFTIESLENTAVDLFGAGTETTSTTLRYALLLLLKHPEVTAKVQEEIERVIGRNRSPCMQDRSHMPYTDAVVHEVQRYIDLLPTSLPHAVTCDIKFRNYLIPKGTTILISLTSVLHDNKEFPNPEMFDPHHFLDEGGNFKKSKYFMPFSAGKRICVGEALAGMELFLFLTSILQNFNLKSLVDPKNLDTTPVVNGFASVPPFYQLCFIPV
Sequence of Cytochrome P450 2C19 (P33261 whole entry): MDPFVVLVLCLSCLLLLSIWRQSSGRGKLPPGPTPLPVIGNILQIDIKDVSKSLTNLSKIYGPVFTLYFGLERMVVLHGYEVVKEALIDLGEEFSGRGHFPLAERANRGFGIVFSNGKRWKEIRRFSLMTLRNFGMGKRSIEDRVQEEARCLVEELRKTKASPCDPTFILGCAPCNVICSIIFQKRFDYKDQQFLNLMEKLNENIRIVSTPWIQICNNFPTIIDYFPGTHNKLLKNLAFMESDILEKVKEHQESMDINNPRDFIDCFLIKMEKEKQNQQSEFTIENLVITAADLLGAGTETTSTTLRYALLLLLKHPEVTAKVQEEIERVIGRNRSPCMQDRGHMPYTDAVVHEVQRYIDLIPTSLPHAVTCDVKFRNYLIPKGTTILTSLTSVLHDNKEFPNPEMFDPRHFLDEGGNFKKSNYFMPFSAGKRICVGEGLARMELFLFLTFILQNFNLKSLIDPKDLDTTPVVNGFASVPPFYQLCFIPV

O=Cc1c(N2CCN(CCO)CC2)nc2ccccn2c1=O
IC50 [1]: > 66 µM (inactive) | IC50 [2]: > 66 µM (inactive) | EC50 [3]: > 53 µM (inactive)

CCN(CC)S(=O)(=O)c1cccc(C(=O)Nc2ccc3c(c2)OCO3)c1
IC50 [4]: > 47.1 µM (inactive) | EC50 [3]: > 53 µM (inactive)

Cc1cc(F)ccc1NCc1cc2c(cc1[N+](=O)[O-])OCO2
EC50 [5]: > 260 µM (inactive)

Cc1ccc2nc(N3C(=O)C(O)=C(C(=O)c4ccco4)C3c3cccc(O)c3)sc2c1 (configuration not stated)
IC50 [4]: < 0.368 µM (active) | EC50 [3]: > 53 µM (inactive)

Cc1cc(O)nc(SCn2nnc3ccccc3c2=O)n1
IC50 [1]: > 66 µM (inactive) | IC50 [2]: > 66 µM (inactive)

COc1ccc(CCNC(=O)COc2ccc(N(C)S(=O)(=O)c3ccc(C)cc3)cc2)cc1OC
IC50 [4]: > 47.1 µM (inactive) | EC50 [3]: > 53 µM (inactive)

CC1(C)CC(=O)C2=C(C1)N(Cc1ccco1)C(=O)C2(O)C(F)(F)F (configuration not stated)
IC50 [4]: > 47.1 µM (inactive) | EC50 [3]: > 53 µM (inactive)

CCN(CC(=O)NCc1ccc(Cl)cc1)C(=O)CNS(=O)(=O)c1ccc(NC(C)=O)cc1
IC50 [1]: > 66 µM (inactive) | IC50 [2]: > 66 µM (inactive)

Cc1cccc(N2CCN(S(=O)(=O)c3ccc(Cl)nc3)CC2C)c1 (configuration not stated)
IC50 [4]: > 47.1 µM (inactive) | EC50 [3]: > 53 µM (inactive)

CC(N=C(S)Nc1ccccc1C(F)(F)F)C1CC2CCC1C2 (configuration not stated)
IC50 [1]: > 66 µM (inactive) | IC50 [2]: > 66 µM (inactive)

COc1ccc(-c2cn3cc(C)ccc3n2)cc1OC
EC50 [5]: > 260 µM (inactive)

CC12CCC(C(=O)Nc3ncc([N+](=O)[O-])s3)(OC1=O)C2(C)C (configuration not stated)
EC50 [6]: > 160 µM (inactive) | EC50 [7]: 629 nM (active) | AC50 (Cytochrome P450 2C19): inconclusive | IC50 [4]: > 47.1 µM (inactive) | EC50 [3]: > 53 µM (inactive) | AC50 (Cytochrome P450 2C9): 11.2 µM (inconclusive)

COC(=O)CC(NC(=O)c1ccc(C)cc1)c1ccc2c(c1)OCO2 (configuration not stated)
IC50 [4]: > 47.1 µM (inactive) | EC50 [3]: > 53 µM (inactive)

Oc1ccnc2c(Cl)cccc12
IC50 [4]: > 47.1 µM (inactive) | EC50 [3]: > 53 µM (inactive)

COCC1CCCCN1C(=O)c1cc(COc2ccc3ncccc3c2)on1 (configuration not stated)
EC50 [8]: > 195 µM (not active) | AC50 (INS1): 3.15 µM (active) | AC50 [9]: 0.33 µM (active) | AC50 [10]: 28.9 µM (active) | AC50 [11]: 3.12 µM (active)

Cc1cc(C)n(N=C(S)NC2CCCCC2)c(=O)c1C#N
IC50 [1]: > 66 µM (inactive) | IC50 [2]: > 66 µM (inactive)

Cc1ccc(C(=O)NC(=S)NNS(=O)(=O)c2ccccc2)cc1
IC50 [1]: > 66 µM (inactive) | IC50 [2]: > 66 µM (inactive)

O=C(NC(=S)Nc1cccnc1)c1cccs1
IC50 [1]: > 66 µM (inactive) | IC50 [2]: > 66 µM (inactive)

COC(=O)c1ccc(CSc2nc3ccccc3c(=O)n2-c2cccc(OC)c2)o1
IC50 [4]: 4.06 µM (active) | EC50 [3]: > 53 µM (inactive)

O=C(NNC(=O)c1cccc(S(=O)(=O)N2CCCCC2)c1)c1ccccc1
IC50 [4]: > 47.1 µM (inactive) | EC50 [3]: > 53 µM (inactive)

Cc1ccc(S(=O)(=O)N2CCN(c3ncnc4sccc34)CC2)cc1
AC50 (INS1): 5.64 µM (active) | AC50 [9]: 2.72 µM (active) | AC50 [10]: 6.76 µM (active) | AC50 [11]: 5.22 µM (active)

CCN1CCc2c(C#N)c(N3CCOCC3)nc(NCCO)c2C1
IC50 [1]: > 66 µM (inactive) | IC50 [2]: > 66 µM (inactive)

Cn1cc([N+](=O)[O-])c(C(=O)Nc2ccc(-c3nc4ccccc4[nH]3)cc2)n1
EC50 [5]: 32 µM (active)

CC(=O)C1(O)CCC2C3CC(C)C4=CC(=O)C=CC4(C)C3(F)C(O)CC21C (configuration not stated)
IC50 [4]: > 47.1 µM (inactive) | EC50 [3]: > 53 µM (inactive)

Cc1ccc(C(=O)NC(=S)Nc2cccc(-c3nc4ccccc4s3)c2)cc1
IC50 [1]: > 66 µM (inactive) | IC50 [2]: > 66 µM (inactive)

Cc1ccc2[nH]c(SCC(=O)NCc3ccc(F)cc3)nc2c1
EC50 [5]: > 260 µM (inactive)

NC(=O)CCN1CCN(CCOC2Cc3cc(Cl)ccc3Sc3ccccc32)CC1 (configuration not stated)
EC50 [5]: > 260 µM (inactive)

COc1ccc2sc(-c3ccc(S(C)(=O)=O)cc3)c(C(=O)NCCc3c[nH]c4ccccc34)c2c1
IC50 [4]: > 47.1 µM (inactive) | EC50 [3]: > 53 µM (inactive)

CN(C1CCCCC1)S(=O)(=O)c1ccc(S)nc1
IC50 [1]: > 66 µM (inactive) | IC50 [2]: > 66 µM (inactive)

O=C(NC(=S)Nc1cccc(O)c1)c1cncc(Br)c1
IC50 [1]: > 66 µM (inactive) | IC50 [2]: > 66 µM (inactive)

CCO/C(O)=C1\C(C)=Nc2nc3ccccc3n2C1c1ccncc1 (configuration not stated)
EC50 [12]: > 120 µM (not active) | EC50 [13]: > 120 µM (not active) | EC50 [14]: > 120 µM (not active) | EC50 [5]: > 260 µM (inactive)

C=CCN1C(=O)NC(=O)/C(=C(/CC)Nc2ccccc2NC(=O)CC)C1=O
IC50 [4]: > 47.1 µM (inactive) | EC50 [3]: > 53 µM (inactive)

CC[C@H](C)[C@H]1O[C@]2(CC[C@@H]1C)C[C@@H]1C[C@@H](CC=C(C)[C@@H](O[C@H]3C[C@H](OC)[C@@H](O[C@H]4C[C@H](OC)[C@@H](O)[C@H](C)O4)[C@H](C)O3)[C@@H](C)C=CC=C3CO[C@@H]4[C@H](O)C(C)=C[C@@H](C(=O)O1)[C@]34O)O2
AC50 [15]: 1.22 µM (active) | AC50 [9]: 6.32 µM (active) | AC50 [10]: 31.2 µM (active) | AC50 [11]: 20.3 µM (active)

CCOc1ncccc1C(=O)NCCc1c[nH]c2ccccc12
EC50 [5]: > 260 µM (inactive)

COC(=O)c1c(C)oc2ccc(N(C(=O)c3ccncc3)S(=O)(=O)c3ccccc3)cc12
AC50 (Cytochrome P450 2D6): 35.5 nM (inconclusive)
